Measurements reported in patent US10221125B2, “Solid forms” (Oryzon Genomics, S.A., priority 2015, dated 2019).
Structures can show the parent of a compound that is named as a salt. Blank lines part the entries; values can stand above or below the compound they belong to.

Experiments:
Format in all cases: physicochemical
[1] = Stability of the di-hydrochloric acid salt (decomposition, release of HCl)
[2] = Long-term incubation/storage at elevated temperature or elevated humidity (phase change)
[3] = Hygroscopicity (mass increase when relative humidity is raised from 0% rH to 90% rH); details: increase in mass
Description: The term “hygroscopicity” describes the ability of a solid material to adsorb moisture. The hygroscopicity of a given API is characterized [European Pharmacopoeia—6th Edition (2008), Chapter 5.11) by the increase in mass when the relative humidity is raised from 0% rH to 90% rH: • non-hygroscopic: weight increase Δm<0.2%; • slightly hygroscopic: weight increase 0.2%≤Δm<2.0%; • hygroscopic: weight increase 2.0%≤Δm<15.0%; • very hygroscopic: weight increase Δm≥15.0%; • a deliquescent: sufficient water is adsorbed to form a liquid.

[4] = Thermal behaviour on heating/cooling (temperature controlled XRPD)
Method: For temperature controlled XRPD measurements, the sample was placed without further processing (e.g. grinding or sieving) in a quartz glass capillary of 1 mm diameter and sealed. Measurements were performed with a STOE high-/low-temperature extension (temperature range −50° C. to 300° C.) with am NiCr/Ni-thermal element at a ramp rate of 5° C. per minute, temperature steps every 5° C., 30 minutes measuring time per step, […]

[5] = Long term equilibration slurry experiments (polymorph stability)

Structure (SMILES): N[C@H]1CC[C@H](N[C@@H]2C[C@H]2c2ccccc2)CC1 [(trans)-N1-((1R,2S)-2-phenylcyclopropyl)cyclohexane-1,4-diamine di-hydrochloride]
stability of di-hydrochloric acid salt (decomposition to mono-hydrochloride, release of corrosive hydrochloric acid) [1]: does not decompose and release corrosive hydrochloric acid

phase change to Form B on long term storage ([2]; increased humidity, e.g. 100% rH): does not induce a phase change to Form B
Structure (SMILES): N[C@H]1CC[C@H](N[C@@H]2C[C@H]2c2ccccc2)CC1 [Form A, (trans)-N1-((1R,2S)-2-phenylcyclopropyl)cyclohexane-1,4-diamine di-hydrochloride]
hygroscopicity [3]: slightly hygroscopic (slightly hygroscopic: weight increase 0.2%≤Δm<2.0%)

stability as compared to Form A [2]: substantially increased
phase change during long-term incubation ([2]; elevated temperature or elevated humidity, even at 100% rH): no phase-change is observed
decomposition temperature ([4]; on heating, di-hydrochloride): above 210 °C
polymorph stability ranking [5]: most stable polymorph
Structure (SMILES): N[C@H]1CC[C@H](N[C@@H]2C[C@H]2c2ccccc2)CC1 [Form B, (trans)-N1-((1R,2S)-2-phenylcyclopropyl)cyclohexane-1,4-diamine di-hydrochloride]
formation of Form C upon heating ([4]; heating of Form B): cannot be prepared upon heating of Form B
hygroscopicity [3]: slightly hygroscopic (slightly hygroscopic: weight increase 0.2%≤Δm<2.0%)

polymorph stability description [4]: unstable high-temperature polymorph
Structure (SMILES): N[C@H]1CC[C@H](N[C@@H]2C[C@H]2c2ccccc2)CC1 [Form C, (trans)-N1-((1R,2S)-2-phenylcyclopropyl)cyclohexane-1,4-diamine di-hydrochloride]
